The values below come from patent publication US20210060016A1, “ANTICANCER AGENT” (JAPANESE FOUNDATION FOR CANCER RESEARCH, priority 2017, published 2021).

In test [1] the test system is human colorectal cancer cell line COLO-320DM. Kind of test: MTT assay, combination of test compound and other anticancer agents. The test is classed as cell-based. Conditions: Examples 9 to 14, COLO-320DM: test compound added at the concentration shown in FIGS. 9 to 14 to irinotecan (SN-38); survival with only irinotecan = 100%. As to the method:
The ratio of residual cells in treatment of the human colorectal cancer cell line COLO-320DM with a combination of the compound prepared in each Compound Example (test compound or tankyrase inhibitory compound) and each of the anticancer agents was measured to evaluate the cell killing effect of the combination on the human colorectal cancer cell line COLO-320DM. The combinations of test compounds and anticancer agents are as follows.
(Example 8): combination of the compound prepared in Compound Example 5 and temozolomide, melphalan, gemcitabine, cytarabine (Ara-C), fluorouracil (5-FU), pemetrexed, mercaptopurine, methotrexate, irinotecan (SN-38), etoposide (VP-16), actinomycin D, daunorubicin, doxorubicin, bleomycin, mitoxantrone, oxaliplatin, carboplatin or cisplatin (Example 9): combination of the compound prepared in Compound Example 110 (G007-LK) and irinotecan (SN-38) (Example 10): combination of the compound prepared in Compound Example 11 and irinotecan (SN-38) (Example 11): combination of the compound prepared in Compound Example 19 and irinotecan (SN-38) (Example 12): combination of the compound prepared in Compound Example 101 and irinotecan (SN-38) (Example 13): combination of the compound prepared in Compound Example 1 and irinotecan (SN-38) (Example 14): combination of the compound prepared in Compound Example 113 and irinotecan (SN-38)
Commercially available compounds were used for temozolomide (manufactured by Sigma-Aldric), melphalan (manufactured by Signa-Aldrich), gemcitabine (Gemcitabine hydrochloride; manufactured by Sigma-Aldric), cytarabine (Cytosine β-D-arabinofuranoside (Ara-C); manufactured by Sigma-Aldrich), fluorouracil (5-Fluorouracil (5-FU); manufactured by Sigma-Aldrich), pemetrexed (Pemetrexed disodium heptahydrate; manufactured by Sigma-Aldrich), mercaptopurine (6-Mercaptopurine monohydrate; manufactured by Sigma-Aldrich), methotrexate (Methotrexate hydrate; manufactured by Sigma-Aldrich), irinotecan (7-Ethyl-10-hydroxycamptothecin (SN-38); manufactured by Sigma-Aldrich), etoposide (Etoposide (VP-16); manufactured by Enzo Life Sciences, Inc.), actinomycin D (manufactured by nacalai tesque), daunorubicin (Daunorubicin hydrochloride; Calbiochem), doxorubicin (Doxorubicin hydrochloride; manufactured by Sigma-Aldrich), bleomycin (Bleomycin sulfate; manufactured by Enzo Life Sciences, Inc.), mitoxantrone (Mitoxantrone dihydrochloride; manufactured by Sigma-Aldrich), oxaliplatin (manufactured by Sigma-Aldrich), carboplatin (manufactured by Sigma-Aldrich) and cisplatin (manufactured by Enzo Life Sciences, Inc.).
First, the human colorectal cancer cell line COLO-320DM was suspended in RPMI1640 medium (hereinafter, medium) containing inactivated 10% fetal bovine serum, and the cells were seeded in a 96-well microplate at 350 cells (75 μL) per well. The cells were subjected to stationary culture overnight in a CO2 incubator at 37° C. Thereafter, in Example 8, a medium (25 μL) containing a combination of the compound prepared in Compound Example 5 and each of the anticancer agents was added in triplicate in such a manner that the final concentrations of the test compound (compound prepared in Compound Example 5) were 0 nM or 30 nM and that the final concentrations of each anticancer agent were those shown in Table 14. In Examples 9 to 14, a medium (25 μL) containing a combination of the compound prepared in each of Compound Examples and each of the anticancer agents was added in triplicate in such a manner that the final concentrations of the test compound were 0 nM or those shown in FIGS. 9 to 14. As a control, 25 μL of a medium containing only dimethyl sulfoxide (DMSO) which is a solvent was added. […]
(In general: Tetrazolium dyes change colour on reduction, which living cells bring about.)

Another test has as its target T1, tankyrase-2 (Homo sapiens, UniProt Q9H2K2).
T1 sequence (Q9H2K2 1-1166): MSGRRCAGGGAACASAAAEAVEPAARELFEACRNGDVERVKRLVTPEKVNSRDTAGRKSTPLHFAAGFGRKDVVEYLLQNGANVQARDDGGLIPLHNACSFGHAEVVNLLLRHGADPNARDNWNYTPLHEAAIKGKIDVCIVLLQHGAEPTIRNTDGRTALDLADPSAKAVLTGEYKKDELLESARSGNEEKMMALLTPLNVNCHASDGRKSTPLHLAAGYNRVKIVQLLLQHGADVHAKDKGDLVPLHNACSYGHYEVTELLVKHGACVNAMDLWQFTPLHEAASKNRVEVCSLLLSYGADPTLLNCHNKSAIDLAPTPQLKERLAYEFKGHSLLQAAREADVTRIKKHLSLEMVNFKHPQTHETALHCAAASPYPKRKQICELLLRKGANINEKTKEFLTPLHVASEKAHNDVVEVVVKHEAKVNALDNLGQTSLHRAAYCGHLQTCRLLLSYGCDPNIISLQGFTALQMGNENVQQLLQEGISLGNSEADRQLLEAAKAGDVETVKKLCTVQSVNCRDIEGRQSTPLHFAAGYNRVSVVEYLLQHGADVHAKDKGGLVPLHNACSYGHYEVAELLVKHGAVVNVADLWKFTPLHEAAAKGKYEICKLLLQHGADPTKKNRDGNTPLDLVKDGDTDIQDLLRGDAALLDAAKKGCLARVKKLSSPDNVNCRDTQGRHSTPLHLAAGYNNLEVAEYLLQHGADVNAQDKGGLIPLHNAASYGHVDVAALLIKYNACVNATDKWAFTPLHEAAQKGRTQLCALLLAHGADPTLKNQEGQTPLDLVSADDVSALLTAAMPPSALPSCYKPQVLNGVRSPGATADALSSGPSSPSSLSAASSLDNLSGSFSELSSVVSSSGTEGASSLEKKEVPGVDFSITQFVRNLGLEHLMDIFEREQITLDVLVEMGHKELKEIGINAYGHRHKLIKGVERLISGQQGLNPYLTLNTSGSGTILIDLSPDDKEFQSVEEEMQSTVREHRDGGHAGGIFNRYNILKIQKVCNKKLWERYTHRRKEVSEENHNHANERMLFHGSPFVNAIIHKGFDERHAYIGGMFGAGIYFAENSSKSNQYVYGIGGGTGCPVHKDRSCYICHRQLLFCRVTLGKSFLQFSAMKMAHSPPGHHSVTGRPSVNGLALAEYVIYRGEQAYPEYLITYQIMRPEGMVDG
Put plainly: X-ray diffraction of tankyrase-2 crystal soaked with the compound. The test is classed as binding. The source says: In the present invention, whether the tankyrase inhibitory compound is a nicotinamide-type compound or an adenosine-type compound can be determined by X-ray diffraction, more specifically a method in which a complex is crystallized from a mixed liquid of a tankyrase crystal prepared beforehand and the tankyrase inhibitory compound, and subjected to X-ray diffraction (soaking method), or a method in which a complex is crystallized from a mixed liquid having the tankyrase inhibitory compound coexisting with tankyrase in a state before the crystallization, and subjected to X-ray diffraction (co-crystallization). Whether the tankyrase inhibitory compound is a dual-type compound can be determined by preparing a crystal under any one of the above-described conditions, and performing X-ray diffraction.
X-ray diffraction data of a tankyrase-2 crystal soaked with the compound prepared in Compound Example 1 was measured with BL26B2 Beam Line in a large synchrotron radiation facility Spring-8 (Sayo-gun, Hyogo). The wavelength of the X-ray was 1.000 Å, and MX-225 (Rayonix, LLC) was used as a detector. The diffraction data was treated with XDS (Kabsch, 2010) and the CCP4 program (Winn et al., 2011).

With `O=c1[nH]c(N2CCC3(CC2)CN(CCO)c2cc(F)cc(F)c23)nc2c1CCCC2` [compound 1, 2-[4,6-Difluoro-1-(2-hydroxyethyl)spiro [indolin-3,4′-piperidin]-1′-yl]-5,6,7,8-tetrahydroquinazolin-4(3H)-one], in test [1], the cell survival rate result is reported as “about 50%”. Further, the “binding pocket type by X-ray diffraction” value at tankyrase-2 is recorded as “nicotinamide-type compound which binds to the nicotinamide binding pocket of tankyrase”.
